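Method: 48-hour compound exposure of cells in 96-well plates, five concentrations, linear interpolation of endpoints. TGI is the concentration that stops growth completely.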
Key:
Assay in all cases: inhibition of tumour cell growth, NCI panel, 48 h
MOLT-4 leukemia = system: MOLT-4 leukemia
NCI/ADR-RES ovarian = system: NCI/ADR-RES ovarian
786-0 renal = system: 786-0 renal
SF-539 CNS = system: SF-539 CNS
NCI-H460 lung = system: NCI-H460 lung
OVCAR-5 ovarian = system: OVCAR-5 ovarian
IGROV1 ovarian = system: IGROV1 ovarian
SNB-19 CNS = system: SNB-19 CNS
UACC-257 melanoma = system: UACC-257 melanoma
HCT-15 colon = system: HCT-15 colon
OVCAR-3 ovarian = system: OVCAR-3 ovarian
SK-MEL-5 melanoma = system: SK-MEL-5 melanoma
NCI-H23 lung = system: NCI-H23 lung
SW-620 colon = system: SW-620 colon
MCF7 breast = system: MCF7 breast
U251 CNS = system: U251 CNS
NCI-H226 lung = system: NCI-H226 lung
RPMI-8226 leukemia = system: RPMI-8226 leukemia
SK-MEL-28 melanoma = system: SK-MEL-28 melanoma
K-562 leukemia = system: K-562 leukemia
EKVX NSCLC = system: EKVX NSCLC
OVCAR-8 ovarian = system: OVCAR-8 ovarian
SR leukemia = system: SR leukemia
PC-3 prostate = system: PC-3 prostate
SN12C renal = system: SN12C renal
HT29 colon = system: HT29 colon
COLO 205 colon = system: COLO 205 colon
MDA-N = system: MDA-N
HL-60(TB) leukemia = system: HL-60(TB) leukemia
T-47D breast = system: T-47D breast
SK-MEL-2 melanoma = system: SK-MEL-2 melanoma
UACC-62 melanoma = system: UACC-62 melanoma
SF-295 CNS = system: SF-295 CNS
SF-268 CNS = system: SF-268 CNS
SK-OV-3 ovarian = system: SK-OV-3 ovarian
CCRF-CEM leukemia = system: CCRF-CEM leukemia
HOP-92 NSCLC = system: HOP-92 NSCLC
KM12 colon = system: KM12 colon
SNB-75 CNS = system: SNB-75 CNS
A498 renal = system: A498 renal
CAKI-1 renal = system: CAKI-1 renal
HCC-2998 colon = system: HCC-2998 colon
A549 NSCLC = system: A549 NSCLC
OVCAR-4 ovarian = system: OVCAR-4 ovarian
MDA-MB-435 = system: MDA-MB-435
M14 melanoma = system: M14 melanoma
NCI-H522 lung = system: NCI-H522 lung
DU-145 prostate = system: DU-145 prostate
HCT-116 colon = system: HCT-116 colon
RXF 393 renal = system: RXF 393 renal
HS 578T breast = system: HS 578T breast
LOX IMVI melanoma = system: LOX IMVI melanoma
HOP-62 NSCLC = system: HOP-62 NSCLC
ACHN renal = system: ACHN renal
BT-549 breast = system: BT-549 breast
TK-10 renal = system: TK-10 renal
MDA-MB-231 breast = system: MDA-MB-231 breast
MALME-3M melanoma = system: MALME-3M melanoma
UO-31 renal = system: UO-31 renal

Work on `CCOC(=O)c1sc(=S)n(-c2ccc(Cl)cc2)c1-n1cc(-c2ccccc2)c(C#N)c1N` yielded a TGI (MOLT-4 leukemia) of over 100 µM, a TGI (NCI/ADR-RES ovarian) of 47.1 µM and a TGI (786-0 renal) of 22.9 µM. The TGI (SF-539 CNS) was 50.6 µM, the TGI (NCI-H460 lung) was over 100 µM and the TGI (OVCAR-5 ovarian) was over 100 µM. It also gave a TGI (IGROV1 ovarian) of 40.5 µM, a TGI (SNB-19 CNS) of 41.6 µM and a TGI (UACC-257 melanoma) of over 100 µM. For the same molecule, the TGI (HCT-15 colon) was over 100 µM, the TGI (OVCAR-3 ovarian) was 32.6 µM and the TGI (SK-MEL-5 melanoma) was 84.5 µM. It also gave a TGI (NCI-H23 lung) of 70.6 µM, a TGI (SW-620 colon) of over 100 µM and a TGI (MCF7 breast) of over 100 µM. For the same molecule, the TGI (U251 CNS) was 32.7 µM, the TGI (NCI-H226 lung) was 43.5 µM and the TGI (RPMI-8226 leukemia) was over 100 µM. It also gave a TGI (SK-MEL-28 melanoma) of over 100 µM, a TGI (K-562 leukemia) of over 100 µM and a TGI (EKVX NSCLC) of 94.7 µM. It also gave a TGI (OVCAR-8 ovarian) of 27.1 µM, a TGI (SR leukemia) of 46.7 µM and a TGI (PC-3 prostate) of 27 µM. The TGI (SN12C renal) was 69.7 µM, the TGI (HT29 colon) was over 100 µM and the TGI (COLO 205 colon) was over 100 µM. It also gave a TGI (MDA-N) of over 100 µM, a TGI (HL-60(TB) leukemia) of over 100 µM and a TGI (T-47D breast) of 27.8 µM. The TGI (SK-MEL-2 melanoma) was 64 µM, the TGI (UACC-62 melanoma) was 85.9 µM and the TGI (SF-295 CNS) was 33.6 µM. It also gave a TGI (SF-268 CNS) of 8.6 µM, a TGI (SK-OV-3 ovarian) of 36 µM and a TGI (CCRF-CEM leukemia) of over 100 µM. It also gave a TGI (HOP-92 NSCLC) of 31.2 µM, a TGI (KM12 colon) of over 100 µM and a TGI (SNB-75 CNS) of 53.6 µM. For the same molecule, the TGI (A498 renal) was 53.9 µM, the TGI (CAKI-1 renal) was over 100 µM and the TGI (HCC-2998 colon) was over 100 µM. For the same molecule, the TGI (A549 NSCLC) was 42.4 µM, the TGI (OVCAR-4 ovarian) was 22.7 µM and the TGI (MDA-MB-435) was over 100 µM. The TGI (M14 melanoma) was over 100 µM, the TGI (NCI-H522 lung) was 14.5 µM and the TGI (DU-145 prostate) was 21.2 µM. It also gave a TGI (HCT-116 colon) of over 100 µM, a TGI (RXF 393 renal) of 64.3 µM and a TGI (HS 578T breast) of 14.5 µM. The TGI (LOX IMVI melanoma) was over 100 µM, the TGI (HOP-62 NSCLC) was 14.7 µM and the TGI (ACHN renal) was 40.9 µM. It also gave a TGI (BT-549 breast) of 48.1 µM, a TGI (TK-10 renal) of 24.4 µM and a TGI (MDA-MB-231 breast) of 60.1 µM.

`CC[C@@H](C)[C@H](NC(=O)[C@H](Cc1ccccc1)NCC(F)(F)F)C(=O)OC(C)(C)C` gave a TGI (MOLT-4 leukemia) of over 100 µM, a TGI (NCI/ADR-RES ovarian) of over 100 µM and a TGI (786-0 renal) of over 100 µM. The TGI (NCI-H460 lung) was over 100 µM, the TGI (MALME-3M melanoma) was over 100 µM and the TGI (OVCAR-5 ovarian) was over 100 µM. For the same molecule, the TGI (IGROV1 ovarian) was over 100 µM, the TGI (SNB-19 CNS) was over 100 µM and the TGI (UACC-257 melanoma) was over 100 µM. For the same molecule, the TGI (HCT-15 colon) was over 100 µM, the TGI (OVCAR-3 ovarian) was over 100 µM and the TGI (SK-MEL-5 melanoma) was over 100 µM. It also gave a TGI (UO-31 renal) of over 100 µM, a TGI (NCI-H23 lung) of over 100 µM and a TGI (SW-620 colon) of over 100 µM. The TGI (MCF7 breast) was over 100 µM, the TGI (U251 CNS) was over 100 µM and the TGI (NCI-H226 lung) was over 100 µM. For the same molecule, the TGI (SK-MEL-28 melanoma) was over 100 µM, the TGI (K-562 leukemia) was over 100 µM and the TGI (EKVX NSCLC) was over 100 µM. The TGI (OVCAR-8 ovarian) was over 100 µM, the TGI (SR leukemia) was over 100 µM and the TGI (PC-3 prostate) was over 100 µM. The TGI (SN12C renal) was over 100 µM, the TGI (HT29 colon) was over 100 µM and the TGI (COLO 205 colon) was over 100 µM. It also gave a TGI (MDA-N) of over 100 µM, a TGI (HL-60(TB) leukemia) of over 100 µM and a TGI (T-47D breast) of over 100 µM. For the same molecule, the TGI (UACC-62 melanoma) was over 100 µM, the TGI (SF-295 CNS) was over 100 µM and the TGI (SF-268 CNS) was over 100 µM. It also gave a TGI (SK-OV-3 ovarian) of over 100 µM, a TGI (CCRF-CEM leukemia) of over 100 µM and a TGI (HOP-92 NSCLC) of over 100 µM. It also gave a TGI (KM12 colon) of over 100 µM, a TGI (A498 renal) of over 100 µM and a TGI (CAKI-1 renal) of over 100 µM. It also gave a TGI (HCC-2998 colon) of over 100 µM, a TGI (A549 NSCLC) of over 100 µM and a TGI (OVCAR-4 ovarian) of over 100 µM. It also gave a TGI (MDA-MB-435) of over 100 µM, a TGI (M14 melanoma) of over 100 µM and a TGI (NCI-H522 lung) of over 100 µM. It also gave a TGI (DU-145 prostate) of over 100 µM, a TGI (HCT-116 colon) of over 100 µM and a TGI (RXF 393 renal) of over 100 µM. For the same molecule, the TGI (HS 578T breast) was over 100 µM, the TGI (LOX IMVI melanoma) was over 100 µM and the TGI (HOP-62 NSCLC) was over 100 µM. It also gave a TGI (ACHN renal) of over 100 µM, a TGI (BT-549 breast) of over 100 µM and a TGI (TK-10 renal) of over 100 µM. It also gave a TGI (MDA-MB-231 breast) of over 100 µM.

From PubChem BioAssay (NCI)
